In data set [1] the test system is Osteoclast. Briefly: Antiresorptive activity in 1,25-dihydroxyvitamin D3-stimulated Swiss Webster mouse osteoclast assessed as blockade of ruffled membrane formation on bone slices at 10 uM after 3 days. The data set is classed as functional, cell-based.
Data set [2] relates to Osteoclast. In words: Antiresorptive activity in 1,25-dihydroxyvitamin D3-stimulated Swiss Webster mouse osteoclast assessed as blockade of ruffled membrane formation on bone slices at 100 uM after 3 days. The data set is classed as functional, cell-based.
The subject of data set [3] is Bone marrow cell. In words: Antiresorptive activity in 1,25-dihydroxyvitamin D3-stimulated Swiss Webster mouse bone marrow cells assessed as reduction in resorptive area at 25 uM after 5 days. Type of data set: functional, cell-based.
Data set [4] concerns Bone marrow cell. Briefly: Antiresorptive activity in 1,25-dihydroxyvitamin D3-stimulated Swiss Webster mouse bone marrow cells at 100 uM after 5 days. The data set is classed as functional, cell-based.
Data set [5] has as its system Bone marrow cell. In words: Antiresorptive activity in 1,25-dihydroxyvitamin D3-stimulated Swiss Webster mouse bone marrow cells assessed as reduction in bone pit formation at 10 uM after 5 days. Type of data set: functional, cell-based.
For data set [6], the system named is Bone marrow cell. Briefly: Antiresorptive activity in 1,25-dihydroxyvitamin D3-stimulated Swiss Webster mouse bone marrow cells assessed as reduction in bone pit formation at 25 uM after 5 days. Type of data set: functional, cell-based.
A short description of data set [7]: Reduction in osteoblast formation from mouse MC3T3-E1 cells assessed as alkaline phosphatase activity at 100 uM after 3 days. The data set is classed as cell-based. The following applies: mc3t3-e1, 72 h.
Data set [8] is described as follows: Reduction in mouse MC3T3-E1 cell growth at 100 uM after 3 days. Type of data set: cell-based. The following applies: mc3t3-e1, 72 h.
Data set [9] is described as follows: Cytotoxicity against mouse MC3T3-E1 cells assessed as change in morphology at 100 uM after 3 days. Type of data set: cell-based. Conditions: mc3t3-e1, 72 h.
Data set [10] has as its target V-type proton ATPase subunit B (Saccharomyces cerevisiae S288c) (UniProt P16140). Briefly: Inhibition of Saccharomyces cerevisiae V-ATPase subunit B expressed in Escherichia coli binding to rabbit muscle actin filament at 100 uM by pelleting assay. Conditions: Muscle tissue.
The target in data set [11] is V-type proton ATPase subunit B, brain isoform (Homo sapiens, UniProt P21281). Briefly: Inhibition of maltose binding protein-fused human V-ATPase subunit B2 binding to F-actin.
Sequence of V-type proton ATPase subunit B, brain isoform (P21281 whole entry, the tested form may be a part, canonical isoform): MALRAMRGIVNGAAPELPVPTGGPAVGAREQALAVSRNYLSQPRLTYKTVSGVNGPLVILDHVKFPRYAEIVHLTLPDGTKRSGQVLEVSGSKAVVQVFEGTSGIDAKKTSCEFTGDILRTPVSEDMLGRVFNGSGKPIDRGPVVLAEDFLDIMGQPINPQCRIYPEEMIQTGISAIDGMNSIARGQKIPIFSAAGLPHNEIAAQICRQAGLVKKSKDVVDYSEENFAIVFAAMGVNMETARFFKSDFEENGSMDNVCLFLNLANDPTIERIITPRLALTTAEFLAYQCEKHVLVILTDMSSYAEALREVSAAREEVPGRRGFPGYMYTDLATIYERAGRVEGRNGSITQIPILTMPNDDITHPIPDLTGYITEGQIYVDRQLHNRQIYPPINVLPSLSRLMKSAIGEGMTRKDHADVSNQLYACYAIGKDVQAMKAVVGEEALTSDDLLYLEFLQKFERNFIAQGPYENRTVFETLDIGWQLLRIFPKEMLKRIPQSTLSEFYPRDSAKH
For data set [12], the system named is Bone marrow cell. Briefly: (§1) Antiresorptive activity against 1,25-dihydroxyvitamin D3-stimulated osteoclast formation in Swiss Webster mouse bone marrow cells assessed as reduction of tartrate-resistant acid phosphatase activity after 7 days. The data set is classed as functional, cell-based.
In data set [13] the test system is Bone marrow cell. Briefly: Antiresorptive activity in 1,25-dihydroxyvitamin D3-stimulated Swiss Webster mouse bone marrow cells after 5 days. Type of data set: functional, cell-based.
Data set [14] deals with Osteoclast. Briefly: Antiresorptive activity in 1,25-dihydroxyvitamin D3-stimulated Swiss Webster mouse osteoclast assessed as blockade of actin ring formation on bone slices at 1 uM after 3 days. The data set is classed as functional, cell-based.
Data set [15] deals with Osteoclast. In words: Antiresorptive activity in 1,25-dihydroxyvitamin D3-stimulated Swiss Webster mouse osteoclast assessed as blockade of ruffled membrane formation on bone slices at 1 uM after 3 days. Type of data set: functional, cell-based.
For data set [16], the system named is Osteoclast. Briefly: Antiresorptive activity in 1,25-dihydroxyvitamin D3-stimulated Swiss Webster mouse osteoclast assessed as blockade of actin ring formation on bone slices at 10 uM after 3 days. The data set is classed as functional, cell-based.
Data set [17] relates to Osteoclast. In words: Antiresorptive activity in 1,25-dihydroxyvitamin D3-stimulated Swiss Webster mouse osteoclast assessed as blockade of actin ring formation on bone slices at 100 uM after 3 days. The data set is classed as functional, cell-based.
Data set [18] is described as follows: as §1. The data set is classed as functional, cell-based. Conditions: Bone marrow cell, 168 h.

Active and inactive are the calls of the source. No cut-off for these calls is given here.

By IC50 is commonly meant the point on the concentration scale where inhibition reaches its midpoint.

Sequence of V-type proton ATPase subunit B (Saccharomyces cerevisiae S288c) (P16140 whole entry, the tested form may be a part, canonical isoform): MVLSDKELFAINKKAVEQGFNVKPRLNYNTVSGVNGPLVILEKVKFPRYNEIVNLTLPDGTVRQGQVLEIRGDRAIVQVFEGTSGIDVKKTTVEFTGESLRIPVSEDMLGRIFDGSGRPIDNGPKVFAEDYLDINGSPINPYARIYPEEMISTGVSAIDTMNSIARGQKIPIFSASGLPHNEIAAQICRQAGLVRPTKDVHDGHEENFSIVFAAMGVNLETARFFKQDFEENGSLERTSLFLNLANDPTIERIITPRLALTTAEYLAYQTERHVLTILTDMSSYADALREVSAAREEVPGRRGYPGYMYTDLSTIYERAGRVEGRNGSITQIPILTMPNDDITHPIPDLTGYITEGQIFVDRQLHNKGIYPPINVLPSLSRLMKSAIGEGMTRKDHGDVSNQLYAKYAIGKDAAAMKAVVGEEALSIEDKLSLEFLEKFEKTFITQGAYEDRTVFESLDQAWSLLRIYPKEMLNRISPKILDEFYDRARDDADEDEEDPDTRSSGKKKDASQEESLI

As for `CCn1cc(C(=O)O)c(=O)c2cc(F)c(N3CCNCC3)nc21` [ENOXACIN], the outcome with Osteoclast [1], in the data set with Osteoclast [2], in the data set with Bone marrow cell [3], in the data set on Bone marrow cell [4], with Bone marrow cell [5] and in the data set with Bone marrow cell [6] was Active. The outcome in the data set on Osteoclast [16] and in the data set with Osteoclast [17] was Active. The Activity result in data set [7] is “Toxic”; in [8], “Toxic”; in [9], “Toxic”; in the data set with Bone marrow cell [12], “Dose-dependent effect”; with Bone marrow cell [13], “Dose-dependent effect”. Also, the inhibition entry in data set [10] is “Active”. In [11], the IC50 is 10 µM. The result in the data set on Osteoclast [14] and with Osteoclast [15] was inactive.

With `CCn1cc(C(=O)O)c(=O)c2cc(F)c(N3CCN(C)CC3)cc21` [PEFLOXACIN], the 50% inhibitory concentration (IC50) in [18] was above 50 µM.

Source of the values: ChEMBL document CHEMBL1152980, “Identification of enoxacin as an inhibitor of osteoclast formation and bone resorption by structure-based virtual screening” (J Med Chem, 2009).
